Assays:
[1] = system: L. (L.) infantum promastigotes; assay: Plasma membrane permeability (Sytox Green); format: cell-based, Leishmania (L.) infantum; conditions: compound 1 169.2 µM, Triton X-100 0.5%, up to 4 h
Description: Promastigotes (2 × 10^6/well) were pretreated with Sytox Green (1 µM) for 15 min, at 24°C. Then, compound 1 (169.2 µM) was added and the fluorescence was monitored every 20 min up to 4 h in a spectrofluorometer, with excitation and emission wavelengths of 485 and 535 nm, respectively ([17]). Triton X-100 (0.5% vol/vol) was employed as positive control and untreated parasites as negative control ([18]).

[2] = system: L. (L.) infantum promastigotes; assay: Mitochondrial membrane electric potential (JC-1, flow cytometry); format: cell-based, Leishmania (L.) infantum; conditions: compound 1 169.2 µM, CCCP 10 µM; 2 and 4 h; JC-1 BL-2/BL-1 ratio; vs untreated
Description: Promastigotes (2 × 10^6/well) were treated with compound 1 (169.2 µM) for 2 and 4 h, at 24°C. Then, JC-1 (10 µM) was added and the parasites were incubated for 20 min. Fluorescence was measured in a flow cytometer with an excitation wavelength of 488 nm and emission of 530 (BL-1) and 574 nm (BL-2). Mitochondrial membrane potential was established through the ratio of BL-2/BL-1 channels ([19]). Carbonyl cyanide m-chlorophenylhydrazone (CCCP) (10 µM) was employed as positive control and untreated parasites as negative control.

[3] = system: L. (L.) infantum promastigotes; assay: Adenosine triphosphate levels (luciferase bioluminescence); format: cell-based, Leishmania (L.) infantum; conditions: 169.2 µM; 2 and 4 h; vs untreated parasites
Description: Promastigotes (2 × 10^6/well) were treated with compound 1 (169.2 µM) for 2 and 4 h, at 24°C. Subsequently, the parasites were lysed with Triton X-100 (0.5%) and mixed with ATP Determination Kit standard reaction buffer (1 mM DTT, 0.5 mM luciferin, and 1.25 µg/mL luciferase), according to the manufacturer’s instructions. […] CCCP (10 µM) was employed as positive control and untreated parasites as negative control.

[4] = system: L. (L.) infantum promastigotes; assay: DNA content / integrity (agarose gel electrophoresis); format: cell-based, Leishmania (L.) infantum; conditions: compound 1 169.2 µM, H2O2 10 mM; 24 h; 2% agarose gel
Description: Promastigotes (1 × 10^7/well) were treated with compound 1 (169.2 μM) in M199 medium supplemented with 10% FBS and 0.25% hemin, pH 7.2, for 24 h at 24°C. Then, the genetic material was extracted using the QIAamp DNA Mini Kit, according to the manufacturer’s instructions. Total DNA quantification was performed in a NanoDrop ND-1000 spectrophotometer (260/280 nm). The purified genetic material (300 ng) was analyzed by electrophoresis for 1 h at […] in a 2% agarose gel with ethidium bromide (0.5 µg/mL). Visualization was performed under UV light in a MiniBIS Pro transilluminator (DNR Bio Imaging System) ([21]). H2O2 (10 mM) was employed as positive control and untreated parasites as negative control ([26]).

[5] = system: Peritoneal macrophages infected with L. (L.) infantum amastigotes; assay: Nitric oxide in infected macrophages (Griess reagent); format: cell-based, BALB/c mice; conditions: compound 1 7.5 to 60 µM, LPS 25 µg/mL; 48 h; vs untreated
Description: L. (L.) infantum (MHOM/BR/1972/LD) promastigotes were maintained in M199 medium supplemented with 10% FBS and 0.25% hemin, pH 7.2 at 24°C. Amastigotes were isolated from golden hamsters (M. auratus) by differential centrifugation of infected spleens and the parasite’s number was determined according to Stauber ([14]). Peritoneal macrophages were obtained from the peritoneal cavity of BALB/c mice and maintained in RPMI-1640 medium supplemented with 10% FBS, pH 7.2 at 37°C.
Peritoneal macrophages (5 × 10^5/well) were infected with L. (L.) infantum amastigotes (10:1 amastigotes/macrophage) for 24 h, at 37°C with 5% CO2. Later, the cells were treated with compound 1 serially diluted (7.5 to 60 µM), under the same conditions described above. After 48 h, the supernatants were collected and incubated with Griess reagent ([28]). […] LPS (25 µg/mL) was employed as the positive control and untreated cells as the negative control ([29]).

[6] = In vivo pharmacokinetic study, intraperitoneal; set-up: species or system Wistar rats; conditions: 5 mg/kg intraperitoneal; for half-life: 5 mg/kg
Description: The detection and quantification of compound 1 in the blood matrices were performed after sample processing, using a liquid-liquid extraction methodology. First, 100 µL of plasma was enriched with 10 µL of PI (0.8 µg/mL). Subsequently, 500 µL of hexane was added and the mixture was vortexed for 1 min and centrifuged at 22,082 × g for 5 min. The organic phase was collected in glass tubes and the aqueous phase was subjected to the liquid-liquid extraction procedure again. In the end, the combined organic samples were completely evaporated at 60°C under nitrogen flow and reconstituted in 100 µL of 40:60 ACN:H2O + 0.1% orthophosphoric acid (pH 2.08). Finally, the extracts were centrifuged at 22,082 × g for 2 min and injected into the chromatographic system. Chromatographic analyses by HPLC were performed using a C18 column (Purospher Star LiChroCART, 55 × 4 mm, 3 µm) with gradient elution (Table 1).
Compound 1 (5 mg/kg) was administered (10 mL/kg in saline-sodium-chloride-0.9%) by intraperitoneal route, to six Wistar rats. Blood samples were collected from the caudal vein at 30 min, 1, 2, 3, 5, 6, 8, 12, and 24 h post-dosing. Plasma samples were prepared as described in the previous section and analyzed by HPLC. Concentrations below the LLOQ were considered as zero. Pharmacokinetic profile was obtained using the WinNonlin 6.4 software, determining different parameters, including half-life time (T½); maximum time (Tmax); maximum plasma concentration (Cmax); area under the curve from time zero to the last measurable concentration time (AUC0-t); area under the curve from zero to infinity (AUC0-inf); percentage of area under the curve extrapolated from the last measurable concentration time to infinity (AUCextrap); and meantime of residence (MRT).

[7] = Wistar, rat, plasma, ip, female rats
[8] = Wistar, rat, plasma, ip, male rats
[9] = both sexes, rat, plasma, ip, single dose, Wistar rats, males + females (mean ± SD)

SMILES: C=CCc1cc(OC)c(OCc2ccc(OC)cc2)c(Oc2ccc(CN3CCOCC3)cc2OC)c1 [compound 1, 4-(4-(5-allyl-3-methoxy-2-((4-methoxybenzyl)oxy)phenoxy)-3-methoxybenzyl)morpholine]
- plasma membrane permeability [1]: no alteration
- mitochondrial membrane electric potential (ΔΨm) [2]: significant depolarization
- ATP concentration [3]: significant reduction
- integrity of the genetic content (DNA) [4]: no alterations
- NO levels [5]: remained similar
- T1/2 ([6]; single dose, Wistar rats, males + females (mean ± SD)): 21.08 ± 17.72 h
- AUC(0-t) [6, 7]: 980 ng·h/mL
- Cmax [6, 7]: 200 ng/mL
- MRT [6, 7]: 12.8 h
- Tmax [6, 7]: 0.5 h
- AUC(0-t) [6, 8]: 650 ng·h/mL
- Cmax [6, 8]: 100 ng/mL
- MRT [6, 8]: 41.1 h
- Tmax [6, 8]: 1.5 h
- half-life ([6]; both sexes, Wistar, rat, plasma, ip, single dose, Wistar rats, males + females (mean ± SD)): 21 h
- AUC(0-inf) [6, 9]: 1270 ± 340 ng·h/mL
- AUC(0-t) [6, 9]: 810 ± 300 ng·h/mL
- Cmax [6, 9]: 150 ± 80 ng/mL
- MRT [6, 9]: 26.9 ± 23.2 h
- Tmax [6, 9]: 1 ± 1.22 h
- half-life ([6]; female, Wistar, rat, plasma, ip, female rats): 10.7 h
- half-life ([6]; male, Wistar, rat, plasma, ip, male rats): 31.4 h

Reference: publication PMC11539218 (Antimicrobial Agents and Chemotherapy, 2024)
